The record followed here is US4563446A, “Thromboxane synthetase inhibiting 3-(1-alkenyl) pyridines” (Takeda Chemical Industries, Ltd., priority 1983, dated 1986).

System in one data set: not listed separately
The experiment in a line: Oral toxicity. The class given is in vivo. The conditions noted are these: 1000 mg/kg/day, five rats, 14 days. The text has this:
Moreover, the compounds of the invention are very low in toxicity in rats, dogs and so forth and characterized by broad margin between the toxic dose and the therapeutically effective dose. […] Furthermore, the compounds (I) of the invention produced long-lasting pharmacological effects in vivo, so that their TXA2 synthetase inhibiting activity is expected to be retained stably for a prolonged period of time. Accordingly, the compounds provided by the invention are used in low doses in mammals, including humans, for the prevention or treatment of thrombosis due to TXA2 -induced platelet aggregation, ischemic diseases due to vasospasm in heart, brain, periphery and circulatory system (e.g. myocardial infarction, stroke, renal infarction, pulmonary infarction, infarction at some other site, digestive tract ulcer) and diseases due to imbalance of the ratio of TXA2 /PGI2, with low incidence of adverse effects resulting from long-term continuous use thereof. They are administered orally in the form of tablets, capsules, powders or granules, for instance, or parenterally in the form of injections or pellets. Generally, they are used in a daily oral dose of 20-200 mg per adult human or a daily parenteral dose of 10-100 mg per adult human, respectively in 1-3 divided doses.
Regarding `OCCCCC/C=C(\c1ccccc1)c1cccnc1` [Id-14, (E)-7-phenyl-7-(3-pyridyl)-6-hepten-1-ol], the Deaths result is “no rat was dead for 14 days”.

A further data set relates to TXA2 synthetase. The experiment in a line: Inhibitory effect on blood thromboxane A2 (TXA2) production in rats. The class given is in vivo, Male Sprague-Dawley rats. The conditions noted are these: 10 mg/kg oral, 2 hours after administration; serum TXB2 by radioimmunoassay, versus control. As for the experimental part: Male Sprague-Dawley rats aged 7 to 8 weeks were used in groups of 5 individuals. Rats in the dosing group received by oral administration of 2 ml/kg of an aqueous suspension of 10 mg/kg of the test compound prepared with a small amount of gum arabic. To rats in the control group, a suspension of gum arabic only was similarly administered. Two hours after administration, each rat was anesthetized with pentobarbital sodium (50 mg/kg, intraperitoneal) and 1 ml of blood was taken from the abdominal aorta. The blood was allowed to stand at 25° C. for 90 minutes, after which it was centrifuged at 15,000 rpm for 2 minutes to separate the serum. The serum thromboxane B2 (TXB2) which was a stable metabolite of TXA2 produced in the blood during the standing procedure was determined by radioimmunoassay (Shibouta et al., Biochemical Pharmacol. 28, 3601, 1979). The percent inhibition of TXA2 synthetase was calculated from the difference in TXB2 production between the control and dosing groups.
Take `CCCCC/C=C(\c1ccccc1)c1cccnc1` [Id-5, (E)-1-phenyl-1-(3-pyridyl)-1-heptene]: the “% inhibition of TXA2 synthetase” value was determined as 73%.
Regarding `O=C(O)CCCCCCCCC/C=C(\c1ccccc1)c1cccnc1` [Id-9, (E)-12-phenyl-12-(3-pyridyl)-11-dodecenoic acid], the “% inhibition of TXA2 synthetase” value was determined as 90%.
Same read-out and setting: with `OCCCCC/C=C(\c1ccccc1)c1cccnc1` [Id-14, (E)-7-phenyl-7-(3-pyridyl)-6-hepten-1-ol] the figure was 92%; with `OCCCCC/C=C(/c1ccccc1)c1cccnc1` [Id-15], 87%.
Still for that read-out and setting: with `OCCCCC/C=C(\c1cccnc1)c1cccs1` [Id-17, (E)-7-(3-pyridyl)-7-(2-thienyl)-6-hepten-1-ol] the figure was 95%; with `OCCCCC/C=C(\c1cccnc1)c1cccs1` [Id-18], 72%.
Take `CC(=O)OCCCCC/C=C(\c1ccccc1)c1cccnc1` [Id-19, 1-acetoxy-(E)-7-phenyl-7-(3-pyridyl)-6-heptene]: the “% inhibition of TXA2 synthetase” value is recorded as 94%.
In the case of `O=COCCCCC/C=C(\c1ccccc1)c1cccnc1` [Id-20, 1-formyloxy-(E)-7-phenyl-7-(3-pyridyl)-6-heptene], the “% inhibition of TXA2 synthetase” value is reported as 87%.
Same read-out and setting: to `CNC(=O)OCCCCC/C=C(\c1ccccc1)c1cccnc1` [Id-24, 1-methylaminocarbonyloxy-(E)-7-phenyl-7-(3-pyridyl)-6-heptene] belongs 90%; to `CCCCNC(=O)OCCCCC/C=C(\c1ccccc1)c1cccnc1` [Id-25, 1-(n-butyl)aminocarbonyloxy-(E)-7-phenyl-7-(3-pyridyl)-6-heptene], 83%.
`O=C(Nc1ccccc1)OCCCCC/C=C(\c1ccccc1)c1cccnc1` [Id-27, 1-phenylaminocarbonyloxy-(E)-7-phenyl-7-(3-pyridyl)-6-heptene]: the “% inhibition of TXA2 synthetase” value is recorded as 87%.
Same read-out and setting: with `S=C(Nc1ccccc1)OCCCCC/C=C(\c1ccccc1)c1cccnc1` [Id-28, 1-phenylaminothiocarbonyloxy-(E)-7-phenyl-7-(3-pyridyl)-6-heptene] the figure was 79%.
With `Cc1ccc(S(=O)(=O)NC(=O)OCCCCC/C=C(\c2ccccc2)c2cccnc2)cc1` [Id-29, 1-(p-toluenesulfonyl)aminocarbonyloxy-(E)-7-phenyl-7-(3-pyridyl)-6-heptene], the “% inhibition of TXA2 synthetase” value is given as 94%.
Still for that read-out and setting: with `O=[N+]([O-])OCCCCC/C=C(\c1ccccc1)c1cccnc1` [Id-32, 1-nitroxy-(E)-7-phenyl-7-(3-pyridyl)-6-heptene] the figure was 94%.
As to `COCCCCC/C=C(\c1ccccc1)c1cccnc1` [Id-37, (E)-1-methoxy-7-phenyl-7-(3-pyridyl)-6-heptene], the “% inhibition of TXA2 synthetase” value was found to be 92%.
Regarding `NC(=O)CCCC/C=C(\c1ccccc1)c1cccnc1` [Id-43, (E)-7-phenyl-7-(3-pyridyl)-6-heptenamide], the “% inhibition of TXA2 synthetase” value was 93%.
On the same count and under the same terms, with `O=C(CCCC/C=C(\c1ccccc1)c1cccnc1)Nc1ccccc1` [Id-44, N-phenylamide of (E)-7-phenyl-7-(3-pyridyl)-6-heptenoic acid] the figure was 94%; with `CC(C)(C)[Si](C)(C)OCCCCC/C=C(\c1ccccc1)c1cccnc1` [Id-48, dimethyl-t-butylsilyl ether of (E)-7-phenyl-7-(3-pyridyl)-6-hepten-1-ol], 91%.
Same read-out and setting: with `O=C(O)CCCC/C=C(\c1ccccc1)c1ccc[n+]([O-])c1` [Ie-2, (E)-7-phenyl-7-(1-oxide-3-pyridyl)-6-heptenoic acid] the figure was 85%; with `O=C(O)CCCC/C=C(/c1ccccc1)c1ccc[n+]([O-])c1` [Ie-3], 70%.
As to `O=C(O)CCCCCCCCC/C=C(\c1ccccc1)c1ccc[n+]([O-])c1` [Ie-4], the “% inhibition of TXA2 synthetase” value was found to be 85%.
Same read-out and setting: with `O=C(O)CCCC/C=C(/c1ccc[n+]([O-])c1)c1cccs1` [Ie-5] the figure was 90%.
Same read-out and setting: to `COC(=O)CCCC/C=C(\c1ccccc1)c1ccc[n+]([O-])c1` [Ie-6] belongs 80%; to `[O-][n+]1cccc(/C(=C/CCCCCO)c2ccccc2)c1` [Ie-7, (E)-7-phenyl-7-(1-oxide-3-pyridyl)-6-hepten-1-ol], 80%.
Still for that read-out and setting: with `O=C(Nc1ccccc1)OCCCCC/C=C(\c1ccccc1)c1ccc[n+]([O-])c1` [Ie-8] the figure was 80%; with `CCCCC/C=C(\c1ccccc1)c1ccc[n+]([O-])c1` [Ie-9], 68%.
